Data taken from US12613236B2, “Lung fibrosis model and methods of using the same” (DUKE UNIVERSITY, priority 2019, dated 2026).

What was measured:
Runx1 = target: T1, Runx1 (Mus musculus, UniProt Q03347); experiment: Lipofibroblast culture with TGF-B induced myofibrogenesis, Runx1 pharmacologic inhibition; type: cell-based; conditions: lipofibroblasts cultured in the presence of Ro 5-3335 and TGF-B for 48 hours
T1 construct: Lipofibroblasts were cultured in the presence of Ro 5-3335 and TGF-B for 48 hours; endogenous in cells; host or cells: primary lung lipofibroblasts (mouse, inferred) in culture

TP53 signaling = experiment: Nutlin-3a treatment after bleomycin injury in Sftpc-CreER; R26R-tdTomato mice, AGER immunostaining; conditions: uninjured (PBS) mice that received Nutlin-3a; 20 mg kg-1 d-1 intraperitoneal for ten days

T1 sequence (Q03347 whole entry): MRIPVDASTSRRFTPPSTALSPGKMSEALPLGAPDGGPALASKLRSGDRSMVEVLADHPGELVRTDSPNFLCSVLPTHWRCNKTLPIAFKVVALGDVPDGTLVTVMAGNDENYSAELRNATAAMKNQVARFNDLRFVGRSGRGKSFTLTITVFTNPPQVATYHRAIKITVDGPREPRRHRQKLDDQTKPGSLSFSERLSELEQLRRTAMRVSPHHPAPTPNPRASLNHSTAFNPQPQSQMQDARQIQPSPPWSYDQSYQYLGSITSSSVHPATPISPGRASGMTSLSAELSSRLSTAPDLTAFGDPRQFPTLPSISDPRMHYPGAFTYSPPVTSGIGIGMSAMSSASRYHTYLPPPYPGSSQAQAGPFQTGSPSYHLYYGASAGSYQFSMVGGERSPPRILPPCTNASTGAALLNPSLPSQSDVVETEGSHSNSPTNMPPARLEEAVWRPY

SMILES | PDGFRA expression and cell shape of lipofibroblasts (Runx1) | aSMA expression and myofibrotic conversion (Runx1) | AGER+Sftpc-tdt+ cells in uninjured lungs (TP53 signaling)
O=C1CN=C(c2ccc[nH]2)c2cc(Cl)ccc2N1 [Ro 5-3335] | maintained PDGFRA expression and their stellate shape | virtually no aSMA expression and myofibrotic conversion | –
COc1ccc(C2=N[C@@H](c3ccc(Cl)cc3)[C@@H](c3ccc(Cl)cc3)N2C(=O)N2CCNC(=O)C2)c(OC(C)C)c1 [Nutlin-3a] | – | – | no AGER+Sftpc-tdt+ cells
